Measurements as given in patent publication US4923882A, “Novel amine derivatives, salts thereof and an anti-ulcer agent containing the same” (Toyama Chemical Co., Ltd., priority 1982, dated 1990).
Where two headings read alike, the source gives them in different places.

Tests used:
gastric acid secretion [1] = experiment: Inhibitory effect on gastric acid secretion, perfused stomach preparation of anesthetized rat (histamine stimulated); type: in vivo, Wistar strain rats; settings: intravenous; for ED100: Rattus norvegicus, cumulative, histamine 30 μg/kg/min, read-out: Dose for complete inhibition; for Duration: time from complete inhibition until pH of perfusate became 4
Protocol: (i) Perfused stomach preparation of anesthetized rat [according to M. N. Ghosh and H. O. Schild: Brit. J. Pharmacol. 13, 54 (1958)]
Wistar strain rats (male, 200 to 250 g) starved for 18 hours were anesthetized with urethane and then subjected to laparotomy, after which the forestomach region of the stomach of each rat was incised. The whole interior of the stomach was sufficiently washed with physiological saline, and the cut edges were sutured. A silicon tube was inserted into the stomach to a length of about 5 mm from the duodenum side and fixed. Subsequently, the stomach was perfused with physiological saline adjusted to a pH of about 10 with an aqueous sodium hydroxide solution at a constant rate (1 ml/min) through an oral sonde, and the change in pH of the perfusate which had flowed out through the silicone tube was continuously recorded. During the perfusion, histamine (30 μg/kg/min) was continuously injected, as an agent for stimulating gastric acid secretion, through the femoral vein at a rate of 0.3 ml/min. Each drug was intravenously administered when the acid secretion became almost constant (pH 3.3±0.2), and cumulatively administered when the inhibition of acid secretion at each dose reached a plateau.
The number of experiments was three for each dose.

gastric acid secretion [2] = experiment: Inhibitory effect on gastric acid secretion, pylorus ligation method (histamine); type: in vivo, Wistar strain rats; settings: Rattus norvegicus, read-out: Inhibition percentage (gastric acid secretion)
Protocol: Five to six Wistar strain rats (male, 190 to 230 g) per group were starved for 35 hours, after which each drug was orally administered, and after 2 hours, the pylorus of each rat was ligated under ether anesthesia. […] After 3 hours, each rat was killed, after which the cardiac portion was ligated, and the stomach was removed. After 1 ml of distilled water was injected into the stomach, the gastric juice was collected by centrifugation and its volume was measured. The acidity of the gastric juice was measured by titrating 1 ml of the gastric juice with a 0.1N aqueous sodium hydroxide solution, taking pH 7.0 as the end-point. Physiological saline was administered to a control group.
The inhibition percentage of gastric acid secretion was determined from the following equation: [formula]

[3] = tested on: isolated guinea pig atrium; experiment: Effect on isolated guinea pig atrium (histamine-induced heart rate); parameters: species or system Hartley guinea pig; settings: for Potency ratio: Cimetidine = 1; for IC50: right atrium, 5×10^-6 M histamine, 30° C., read-out: ID50 (the source's name)
Protocol: Hartley guinea pig (male, 300 to 400 g) was killed by blood-letting, immediately after which the heart was isolated, and the right atrium was separated in a Krebs-Henseleit solution and used as a preparation. […] The preparation was trained in a bath fluid, and after the heart rate became constant, 5×10^-6 M of histamine was administered. After the heart rate became constant, each drug was administered cumulatively.
The inhibition percentage was determined from the following equation: [formula] HRmin : heart rate before the administration of histamine HRmax : heart rate after the administration of histamine
HRx : heart rate at the time of the administration of each drug.
The number of experiments were five for each dose.

Indomethacin ulcer = experiment: Anti-ulcer activity: Indomethacin ulcer; type: in vivo, Wistar strain rats; settings: for Potency ratio: Cimetidine = 1; for ED50: 5 h
Protocol: Six Wistar strain rats (male, 200 to 250 g) per group were starved for 24 hours, after which each drug was orally administered, and after 30 minutes, Indomethacin was injected subcutaneously at a dose of 30 mg/kg. After 5 hours, each rat was killed, and the stomach was removed and fixed with 3% formalin, after which the lengths of ulcers formed in the stomach was measured under the binocular stereoscopic microscope (10×), and the sum total of the lengths was taken as the ulcer index. To a control group was administered 0.5% Tween 80 physiological saline. The inhibition percentage was determined from the following equation: [formula]

[4] = tested on: Mepirizole-induced duodenal ulcer; experiment: Anti-ulcer activity: Mepirizole-induced duodenal ulcer; type: in vivo, Wistar strain rats; settings: for Potency ratio: Cimetidine = 1; for ED50: Rattus norvegicus, 18 h; for rats died: in mepirizole test
Protocol: (ii) Mepirizole-induced duodenal ulcer
A test was carried out according to the method of Okabe et al. [S. Okabe et al., Gastrcenterology, 80, 1241 (1981)].
Six Wistar strain rats (male, 200 to 250 g) per group were starved for 24 hours, after which each drug was orally administered, and after 30 minutes, mepirizole was injected subcutaneously at a dose of 200 mg/kg. After 18 hours, the stomach and duodenum were removed and fixed with 3% formalin, after which the areas and depths of the ulcers formed in the duodenum were measured under the binocular stereoscopic microscope (10×). The scores were given in 7 grades depending on the areas and depths of the ulcers, and the sum total of the scores was taken as the ulcer index. The scores were given as follows:
That is to say, the score is 0 at an ulcer area of 0 to 0.2 mm^2, 1 at 0.2 to 1.0 mm^2, 2 at 1 to 3 mm^2, 3 at 3 to 6 mm^2, 4 at 6 to 10 mm^2,5 at 10 mm^2 or more, the ulcer in the condition immediately before perforation is scored as 6, and the ulcer which had caused perforation is scored as 7.
(§1) To a control group was administered 0.5% Tween 80 physiological saline. The inhibition percentage was determined from the following equation: [formula]

[5] = tested on: Stress ulcer induced by water-immersion; experiment: Anti-ulcer activity: Stress ulcer induced by water-immersion; type: in vivo, Wistar rats; settings: for Potency ratio: Cimetidine = 1; for ED50: Rattus norvegicus, 15 h
Protocol: (iii) Stress ulcer induced by water-immersion
An experiment was carried out according to the method of Takagi et al. [K. Takagi et al., Jap.
Six Wistar rats (male, 230 to 280 g) per group were starved for 24 hours, after which each drug was orally administered. After 30 minutes, the rats were placed in stress cage, immersed in water at 23° C. to the depth of xiphoid, and allowed to stand therein for 15 hours. Thereafter, the stomach of each rat was removed and then fixed with 3% formalin, after which the areas of the ulcers formed were measured under the binocular stereoscopic microscope (10×), and the sum total of the areas was taken as the ulcer index. To a control group was administered 0.5% Tween 80 physiological saline.
The inhibition percentage was determined from the following equation: [formula]

Reserpine ulcer = experiment: Anti-ulcer activity: Reserpine ulcer; type: in vivo, Wistar strain rats; settings: oral
Protocol: An experiment was carried out according to the method of Adami et al. [E. Adami et al., Arch. int.
Ten Wistar strain rats (male, 180 to 200 g) per group were starved for 30 hours, after which each drug was orally administered, and after 1 hour, reserpine was injected subcutaneously at a dose of 10 mg/kg. After 18 hours, the stomach was removed and fixed with 3% formalin, and thereafter the lengths of the ulcers formed in the stomach were measured with callipers. The measured values were converted to the scores described below, and the sum total of the scores was taken as the ulcer index.
That is to say, 1 to 5 pin point ulcers are scored as 1, 6 or more pin point ulcers are scored as 2, ulcers of 1 mm or less in length are scored as 1, ulcers of 1 to 2 mm in length are scored as 2, ulcers of 2 to 4 mm in length are scored as 4, and ulcers of 4 mm or more in length are scored as 8.
as §1

[6] = Rattus norvegicus, oral, Indomethacin ulcer, read-out: ID50 (the source's name)
[7] = Rattus norvegicus, 10 mg/kg, oral, read-out: Inhibition percentage
[8] = oral, mepirizole-induced duodenal ulcer, read-out: ID50 (the source's name)
[9] = oral, water-immersion stress ulcer, read-out: ID50 (the source's name)
[10] = Rattus norvegicus, po, read-out: Inhibition percentage
[11] = Rattus norvegicus, oral, read-out: Inhibition percentage

Row | Compound | ED100 (gastric acid secretion [1]) [mg/kg] | Duration (gastric acid secretion [1]) [min] | inhibition in vivo at 3 mg/kg (gastric acid secretion [2]; oral, histamine 25 mg/kg s.c.) [%] | Potency ratio [3] | IC50 [3] [µM] | Potency ratio (Indomethacin ulcer) | ED50 (Indomethacin ulcer; [6]) [mg/kg] | inhibition in vivo at 10 mg/kg (Indomethacin ulcer; [7]) [%] | Potency ratio [4] | ED50 [4, 8] [mg/kg] | Inhibition percentage ([5]; 3 mg/kg, oral) [%] | Inhibition percentage ([5]; 10 mg/kg, oral) [%] | Potency ratio [5] | ED50 [5, 9] [mg/kg] | further results
1 | O=[N+]([O-])C=C(NCCCOc1cccc(CN2CCCCC2)c1)NCC(O)c1ccc2c(c1)OCO2 (stereo not shown) [compound 17, N-[2-hydroxy-2-(3,4-methylenedioxyphenyl)ethyl]-2-nitro-N'-[3-(3-piperidinomethylphenoxy)propyl]-1,1-ethenediamine] | 0.15 | > 280 | 70 | 15.4 | 0.218 | – | – | – | – | – | – | – | – | – | –
2 | CNC(=C[N+](=O)[O-])NCCSCc1ccc(CN(C)C)o1 [Ranitidine, reference compound] | 0.5 | 92 | 17 | – | – | 1.8 | 15.5 | 18 | 5.1 | 32 | 7 | 80 | 2.4 | 6.4 | inhibition in vivo at 10 mg/kg (gastric acid secretion [2]; 10 mg/kg, oral, histamine 25 mg/kg s.c.): 56%; inhibition in vivo at 30 mg/kg (gastric acid secretion [2]; 30 mg/kg, oral, histamine 25 mg/kg s.c.): 91%; inhibition in vivo at 30 mg/kg (Indomethacin ulcer; Rattus norvegicus, 30 mg/kg, oral, read-out: Inhibition percentage): 98%; Inhibition percentage ([4]; 30 mg/kg, oral): 49%; Inhibition percentage ([4]; 100 mg/kg, oral): 78%; Inhibition percentage (Reserpine ulcer; 30 mg/kg): 33%; Inhibition percentage (Reserpine ulcer; 100 mg/kg): 40%
3 | CCc1ccc(C(O)CNC(=C[N+](=O)[O-])NCCSCc2cc(C)c(CN(C)C)s2)cc1 (stereo not shown) [compound 42, N-{2-[[5-(dimethylamino)methyl-4-methyl-2-thienyl]methylthio]ethyl}-N'-[2-(4-ethylphenyl)-2-hydroxyethyl]-2-nitro-1,1-ethenediamine] | – | – | – | 14.1 | 0.237 | – | – | – | – | – | – | – | – | – | inhibition in vivo at 1 mg/kg (gastric acid secretion [2]; oral, histamine 25 mg/kg s.c.): 57%
4 | CN/C(=N/CCSCc1nc[nH]c1C)NC#N [Cimetidine, reference compound] | – | 16 | – | 1 | 3.35 | – | – | – | – | – | – | 22 | – | – | inhibition in vivo at 10 mg/kg (gastric acid secretion [2]; po): 39%; inhibition in vivo at 30 mg/kg (gastric acid secretion [2]; po): 60%; inhibition in vivo at 90 mg/kg (gastric acid secretion [2]; po): 97%; ED50 (Indomethacin ulcer; Rattus norvegicus, po, read-out: ID50): 27.5 mg/kg; inhibition in vivo at 10 mg/kg (Indomethacin ulcer; [10]): 18%; inhibition in vivo at 30 mg/kg (Indomethacin ulcer; [10]): 50%; inhibition in vivo at 100 mg/kg (Indomethacin ulcer; [10]): 97%; Inhibition percentage ([4]; 100 mg/kg, oral): 43%; rats died ([4]; 100 mg/kg, oral): Two of six rats died; Inhibition percentage ([4]; 300 mg/kg, oral): 59%; rats died ([4]; 300 mg/kg, oral): Four of six rats died; ED50 ([4]; po, read-out: ID50): 162 mg/kg; Inhibition percentage ([5]; 30 mg/kg, oral): 94%; ED50 ([5]; po, read-out: ID50): 15.5 mg/kg; Inhibition percentage (Reserpine ulcer; 100 mg/kg): 9.7%
5 | O=[N+]([O-])C=C(NCCCOc1cccc(CN2CCCCC2)c1)NCC(O)c1ccc(F)cc1 (stereo not shown) [compound 15, N-[2-(4-fluorophenyl)-2-hydroxyethyl]-2-nitro-N'-[3-(3-piperidinomethylphenoxy)propyl]-1,1-ethenediamine] | 0.06 | 180 | – | 15.4 | 0.218 | 68.8 | 0.4 | 98 | 36.0 | 4.5 | 69 | 83 | 11.5 | 1.35 | inhibition in vivo at 1 mg/kg (gastric acid secretion [2]; oral, histamine 25 mg/kg s.c.): 77%; inhibition in vivo at 0.3 mg/kg (Indomethacin ulcer; Rattus norvegicus, 0.3 mg/kg, oral, read-out: Inhibition percentage): 37%; inhibition in vivo at 1 mg/kg (Indomethacin ulcer; [11]): 88%; inhibition in vivo at 3 mg/kg (Indomethacin ulcer; [11]): 92%; Inhibition percentage ([4]; 1 mg/kg, oral): 2%; Inhibition percentage ([4]; 3 mg/kg, oral): 29%; Inhibition percentage ([4]; 10 mg/kg, oral): 93%; Inhibition percentage ([5]; 1 mg/kg, oral): 42%
6 | CN(C)Cc1ccc(CSCCNC(=C[N+](=O)[O-])NCC(O)c2ccccc2F)o1 (stereo not shown) [compound 4, N-{2-[[5-(dimethylamino)methyl-2-furyl]methylthio]ethyl}-N'-[2-(2-fluorophenyl)-2-hydroxyethyl]-2-nitro-1,1-ethenediamine] | 0.04 | 220 | 75 | 14.9 | 0.225 | – | – | – | – | – | – | – | – | – | –
7 | CN(C)Cc1ccc(CSCCNC(=C[N+](=O)[O-])NCC(O)c2ccc(O)cc2)o1 (stereo not shown) [compound 3, N-{2-[[5-(dimethylamino)methyl-2-furyl]methylthio]ethyl}-N'-[2-hydroxy-2-(4-hydroxyphenyl)ethyl]-2-nitro-1,1-ethenediamine] | 0.1 | 155 | – | 14.7 | 0.228 | 8.1 | 3.4 | 71 | 55.9 | 2.9 | 73 | 83 | 9.0 | 1.72 | inhibition in vivo at 1 mg/kg (Indomethacin ulcer; [11]): 20%; inhibition in vivo at 3 mg/kg (Indomethacin ulcer; [11]): 51%; Inhibition percentage ([4]; 1 mg/kg, oral): 12%; Inhibition percentage ([4]; 3 mg/kg, oral): 49%; Inhibition percentage ([4]; 10 mg/kg, oral): 97%; Inhibition percentage ([5]; 1 mg/kg, oral): 12%
